These results are taken from BindingDB's records for doi:10.1021/jm030336u (University of Tennessee At Memphis, 2004).

The test addresses T1, Androgen receptor (Rattus norvegicus, UniProt P15207).
T1 sequence (P15207 whole entry): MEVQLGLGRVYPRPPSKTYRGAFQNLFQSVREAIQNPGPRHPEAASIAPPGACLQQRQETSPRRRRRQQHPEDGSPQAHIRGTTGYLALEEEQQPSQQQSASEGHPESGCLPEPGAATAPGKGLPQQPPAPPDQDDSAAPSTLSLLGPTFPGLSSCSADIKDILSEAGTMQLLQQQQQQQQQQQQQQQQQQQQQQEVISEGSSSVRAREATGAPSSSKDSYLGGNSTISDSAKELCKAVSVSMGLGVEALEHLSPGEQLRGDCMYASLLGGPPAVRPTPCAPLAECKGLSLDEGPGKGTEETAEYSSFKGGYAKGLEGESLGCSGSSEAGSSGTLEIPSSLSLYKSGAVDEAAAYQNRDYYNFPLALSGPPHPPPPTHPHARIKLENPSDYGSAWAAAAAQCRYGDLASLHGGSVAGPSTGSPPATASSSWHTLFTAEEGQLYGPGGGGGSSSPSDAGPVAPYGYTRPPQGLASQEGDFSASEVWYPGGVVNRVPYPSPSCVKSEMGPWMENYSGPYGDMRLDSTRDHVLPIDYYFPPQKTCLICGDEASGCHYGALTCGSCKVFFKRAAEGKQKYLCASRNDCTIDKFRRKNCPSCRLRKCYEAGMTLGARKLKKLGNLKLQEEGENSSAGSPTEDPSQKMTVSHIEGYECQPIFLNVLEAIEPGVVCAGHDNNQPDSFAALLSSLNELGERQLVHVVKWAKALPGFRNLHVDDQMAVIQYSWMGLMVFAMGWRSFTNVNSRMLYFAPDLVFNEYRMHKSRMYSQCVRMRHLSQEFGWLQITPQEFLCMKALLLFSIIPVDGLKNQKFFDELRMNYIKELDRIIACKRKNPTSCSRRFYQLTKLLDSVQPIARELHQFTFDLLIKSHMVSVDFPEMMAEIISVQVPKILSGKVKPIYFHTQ
Briefly: Competitive Radioligand Displacement Assay. The note with it: pH 7.4; 4 °C. (In general: Displacement assays read how much labelled ligand stays bound in the presence of the test substance.)

For orientation: Ki means the dissociation constant of the complex between target and ligand, obtained from inhibition or displacement. The low end stands for higher affinity, the high end for lower affinity. As for `C[C@](O)(COc1ccc(I)cc1)C(=O)Nc1ccc([N+](=O)[O-])c(C(F)(F)F)c1` [(2S)-2-hydroxy-3-(4-iodophenoxy)-2-methyl-N-[4-nitro-3-(trifluoromethyl)phenyl]propanamide], the affinity, expressed as Ki, was 30 nM. For `C[C@](O)(COc1ccc(Br)cc1)C(=O)Nc1ccc([N+](=O)[O-])c(C(F)(F)F)c1` [(2S)-3-(4-bromophenoxy)-2-hydroxy-2-methyl-N-[4-nitro-3-(trifluoromethyl)phenyl]propanamide] the value was 11.6 nM; for `CC(=O)Nc1ccc(SC[C@](C)(O)C(=O)Nc2ccc([N+](=O)[O-])c(C(F)(F)F)c2)cc1` [(2R)-3-[(4-acetamidophenyl)sulfanyl]-2-hydroxy-2-methyl-N-[4-nitro-3-(trifluoromethyl)phenyl]propanamide], 4.9 nM; for `CC(O)(COc1ccc([N-]C#[S+])cc1)C(=O)Nc1ccc([N+](=O)[O-])c(C(F)(F)F)c1` [(2S)-2-hydroxy-3-(4-isothiocyanatophenoxy)-2-methyl-N-[4-nitro-3-(trifluoromethyl)phenyl]propanamide], 4.62 nM.
